Source: patent US11884905B2, “Fluidic chip for cell culture use, culture vessel, and culture method” (University Public Corporation Osaka, priority 2017, dated 2024)

Experiments:
Assay type in all cases: cell-based
Settings in all cases: culture solution containing 20 μM doxorubicin, 24 hours, optical microscope
[1] = system: human bronchial epithelial cells; test: Fluidic chip three-dimensional culture with doxorubicin, bronchial epithelial cells downstream of hepatoma cells (control)
Protocol: (§1) Cardiac toxicity known as efficacy and side effect of doxorubicin widely used as an anticancer drug was assessed using the fluidic chip for cell culture use according to the present invention.
(§2) First, five culture vessels 9a each enclosing human hepatoma-derived cells were manufactured, three culture vessels 9b each enclosing human umbilical vein endothelial cells were manufactured, three culture vessels 9c each enclosing human myocardial cells were manufactured, three culture vessels 9d each enclosing human bronchial epithelial cells were manufactured, and three culture vessels 9e each enclosing human fibroblast cells were manufactured. These culture vessels 9a to 9e were subjected to preparatory culture (cultured in three dimensions) for two days in wells 33 of the multi-well plate 32, respectively. The culture vessels were manufactured in the same manner as in the cell culture experiment (1), except that the kinds of the cells to be cultured were changed. FIG. 15 illustrates the photograph of the multi-well plate 32 after the preparatory culture.
(§3) Thereafter, the culture vessels 9a to 9e were set on an optical microscope, and the cultured cells were observed. […] Then, sample cells in good condition in shape were only extracted. […]

human myocardial cells = test: Fluidic chip three-dimensional culture with doxorubicin, cardiac toxicity on myocardial cells downstream of hepatoma cells
Protocol: as §1, §2, §3

[2] = system: human hepatoma-derived cells; test: Fluidic chip three-dimensional culture with doxorubicin, hepatoma cells (upstream)
Protocol: as §1, §2, §3

human fibroblast cells = test: Fluidic chip three-dimensional culture with doxorubicin, fibroblast cells downstream of hepatoma cells (control)
Protocol: as §1, §2, §3

- change in shape / growth of fibroblast cells (human fibroblast cells): the fibroblast cells continued to grow
SMILES: COc1cccc2c1C(=O)c1c(O)c3c(c(O)c1C2=O)C[C@@](O)(C(=O)CO)C[C@@H]3O[C@H]1C[C@H](N)[C@H](O)[C@H](C)O1 [doxorubicin]
- change in shape / growth of bronchial epithelial cells [1]: a branch of a bronchus was wide and continued to grow
- change in shape of myocardial cells (cardiac toxicity) (human myocardial cells): entirely reduced in size
- change in shape of hepatoma cells (infiltrating portions), efficacy as anticancer drug [2]: the infiltrating portions disappear within twenty-four hours
